Reference: ChEMBL document CHEMBL1201862, “PubChem BioAssay data set” (2004)
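Five concentrations, 48 hours, 96-well plates. GI50 marks 50% less growth.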 The source made the active and inactive calls. Rule as the data show it: active = GI50 up to about 1.1 µM and inactive = higher.

How the values were obtained:
Assay in all cases: NCI tumour cell line growth inhibition, 48 h
HOP-18 = tested on: HOP-18
DMS-114 = tested on: DMS-114
DMS-273 = tested on: DMS-273
KM-20L2 = tested on: KM-20L2
XF498 = tested on: XF498
DLD-1 = tested on: DLD-1
M19-MEL = tested on: M19-MEL
SNB-78 = tested on: SNB-78
RXF 631 = tested on: RXF 631

Measured: GI50

O=C1C=CC(=O)c2cc(Sc3ccccc3)c(=O)c(Sc3ccccc3)cc21
inactive: HOP-18 71.8 µM | DMS-114 22.2 µM | DMS-273 > 100 µM | KM-20L2 > 100 µM | XF498 86.3 µM | DLD-1 56.4 µM | M19-MEL 48.5 µM

COc1cc(OC(=O)c2ccccc2)cc2c1C(=O)C=CC2=O
inactive: HOP-18 16.6 µM | SNB-78 20.5 µM | DMS-114 10.9 µM | DMS-273 21.8 µM | KM-20L2 > 56.9 µM | XF498 17.6 µM | RXF 631 20 µM | DLD-1 15.4 µM | M19-MEL 11 µM

CCCCCC/C(CC(=O)CCC(=O)NCCc1ccccc1)=N\Nc1ccc([N+](=O)[O-])cc1[N+](=O)[O-]
inactive: HOP-18 59.8 µM | SNB-78 > 100 µM | DMS-114 20 µM | DMS-273 > 100 µM | KM-20L2 > 100 µM | RXF 631 64.6 µM | DLD-1 63.7 µM | M19-MEL 54.5 µM

CN(C)/N=N/c1ccc(S(N)(=O)=O)cc1
inactive: HOP-18 > 100 µM | DMS-114 > 100 µM | DMS-273 > 100 µM | KM-20L2 > 100 µM | XF498 > 100 µM | DLD-1 > 100 µM | M19-MEL > 100 µM

C=CCC1(CC)C(=O)NC(=O)NC1=O [ETALLOBARBITAL]
inactive: SNB-78 > 100 µM | DMS-273 > 100 µM | KM-20L2 > 100 µM | M19-MEL > 100 µM

COc1cc(OC)c(C2CC=Cc3c(OC)cc(OC)c(OC)c32)cc1OC (centres undefined)
inactive: HOP-18 > 100 µM | SNB-78 > 100 µM | DMS-114 > 100 µM | DMS-273 > 100 µM | KM-20L2 > 100 µM | XF498 > 100 µM | DLD-1 > 100 µM | M19-MEL > 100 µM

CCCCC1(C)C=C/C(=C2/C(=O)O/C(=C\C(=O)O)C2=O)O1 (centres undefined)
inactive: HOP-18 > 100 µM | SNB-78 > 100 µM | DMS-273 > 100 µM | KM-20L2 > 100 µM | XF498 > 100 µM | RXF 631 > 100 µM | M19-MEL > 100 µM

CC(C)(C)[Si](C)(C)O/N=C\c1ccc(O[Si](C)(C)C(C)(C)C)cc1
inactive: HOP-18 > 100 µM | SNB-78 > 100 µM | DMS-114 25.9 µM | DMS-273 > 100 µM | KM-20L2 44.7 µM | XF498 31.8 µM | RXF 631 24 µM | DLD-1 > 100 µM | M19-MEL 41.3 µM

CCOC(=O)/C(C#N)=C\C=C1/C=CN=C2NCCN21
inactive: HOP-18 > 100 µM | SNB-78 > 100 µM | DMS-114 > 100 µM | DMS-273 > 100 µM | KM-20L2 > 100 µM | XF498 > 100 µM | DLD-1 > 100 µM | M19-MEL > 100 µM

CCOc1ccc(/N=N/c2ccc3oc(=O)c(/C(C)=N/NC(=O)CC(=O)Nc4cccc(OC)c4)cc3c2)cc1
inactive: HOP-18 17.1 µM | SNB-78 23.6 µM | DMS-114 14.3 µM | DMS-273 24.8 µM | KM-20L2 > 31.6 µM | XF498 17.5 µM | DLD-1 13.8 µM | M19-MEL 23.8 µM

CCOP(=O)(Cc1ccc(CP(=O)(OCC)OCC)n1C)OCC
inactive: HOP-18 75 µM | DMS-114 > 100 µM | DMS-273 > 100 µM | KM-20L2 > 100 µM | RXF 631 > 100 µM | DLD-1 > 100 µM | M19-MEL > 100 µM

COc1cc(C2C(C(=O)Nc3ccccc3)=C(C)NC(C)=C2C(=O)Nc2ccccc2)ccc1O
inactive: HOP-18 99.3 µM | SNB-78 53.5 µM | DMS-114 42 µM | KM-20L2 20.1 µM | XF498 34.2 µM | DLD-1 29.1 µM | M19-MEL 36.2 µM

C(=N\Nc1ccccc1)/c1nc2ccccc2nc1/C=N/Nc1ccccc1
inactive: SNB-78 20.7 µM | KM-20L2 8.73 µM | RXF 631 13.6 µM | DLD-1 11.3 µM | M19-MEL 20.7 µM

CN(C)c1ccc(-c2cc(O)c3cc4c(cc3n2)OCO4)cc1
inactive: DMS-114 > 100 µM | DMS-273 > 100 µM | KM-20L2 > 100 µM | XF498 > 100 µM | RXF 631 > 100 µM | DLD-1 > 100 µM | M19-MEL > 100 µM

O=C(O)c1ccc([I+]c2ccccc2)cc1
inactive: HOP-18 > 100 µM | SNB-78 > 100 µM | DMS-114 > 100 µM | DMS-273 > 100 µM | KM-20L2 > 100 µM | XF498 > 100 µM | RXF 631 > 100 µM | DLD-1 > 100 µM | M19-MEL > 100 µM

CN(C)c1ccc2c(NCCCCCCNc3ccnc4cc(N(C)C)ccc34)ccnc2c1
inactive: SNB-78 4.79 µM | DMS-114 6.75 µM | DMS-273 4.03 µM | XF498 2.79 µM | RXF 631 51.4 µM | DLD-1 43.7 µM | M19-MEL 13.7 µM

COc1ccc(C[C@@H]2Cc3cc(OC)c(OC)cc3CN2C)cc1
inactive: SNB-78 > 100 µM | KM-20L2 > 100 µM | XF498 53.5 µM | DLD-1 > 100 µM

O=S(=O)(OI(OI(OS(=O)(=O)C(F)(F)F)c1ccccc1)c1ccccc1)C(F)(F)F
inactive: SNB-78 50.6 µM | DMS-114 5.18 µM | DMS-273 23.7 µM | KM-20L2 71.6 µM | DLD-1 58.9 µM | M19-MEL 40.7 µM

Cc1cccc(N2C(=O)C(=O)C(c3nc4ccccc4s3)/C(=N/NC(=S)NN)C2=O)c1C (centres undefined)
inactive: SNB-78 > 100 µM | DMS-114 > 100 µM | DMS-273 > 100 µM | KM-20L2 > 100 µM | XF498 > 100 µM | RXF 631 > 100 µM | M19-MEL > 100 µM

COc1cc2ccn3c4cc(OC)c(OC)cc4cc3c2cc1OC
inactive: SNB-78 > 100 µM | DMS-114 50.6 µM | KM-20L2 > 100 µM | XF498 7.16 µM | DLD-1 > 100 µM | M19-MEL > 100 µM

COc1c(C(=O)c2ccc([N+](=O)[O-])cc2)cc(C(C)(C)C)cc1C(C)(C)C
inactive: HOP-18 > 100 µM | SNB-78 46.6 µM | DMS-114 22.1 µM | DMS-273 30.2 µM | KM-20L2 35.6 µM | XF498 22.2 µM | DLD-1 54 µM | M19-MEL 30.1 µM

N#Cc1ccccc1NC(=O)C(=O)C(C(=O)c1ccncc1)C1OC(=O)c2ccccc21 (centres undefined)
inactive: HOP-18 > 100 µM | SNB-78 > 100 µM | DMS-114 > 100 µM | KM-20L2 > 100 µM | XF498 > 100 µM | RXF 631 > 100 µM | DLD-1 > 100 µM | M19-MEL > 100 µM

CC(/C(=N/NC(=O)C(N)=O)c1c(Cl)ccc(Cl)c1O)C1(O)C(=O)Nc2ccccc21 (centres undefined)
inactive: HOP-18 34.8 µM | SNB-78 > 100 µM | DMS-114 34.4 µM | DMS-273 27.4 µM | KM-20L2 56.2 µM | RXF 631 32.1 µM | DLD-1 35.3 µM | M19-MEL 40.4 µM

C[C@@H]1OC(=O)N2CCCC(=C3SCCCS3)C12 (some centres undefined)
inactive: HOP-18 52.5 µM | SNB-78 > 100 µM | DMS-114 25.1 µM | DMS-273 97.7 µM | KM-20L2 93.8 µM | XF498 36.6 µM | M19-MEL 45.6 µM

Cc1cc2c(cc1C)NC(=O)C(NC(=O)/C=C/c1ccccc1)C=N2 (centres undefined)
inactive: HOP-18 37.5 µM | SNB-78 66.7 µM | DMS-114 12.3 µM | DMS-273 29 µM | KM-20L2 45.3 µM | XF498 28 µM | DLD-1 28.2 µM | M19-MEL 33.3 µM
